Source: patent publication US7919493B2, “Anititumoral ecteinascidin derivatives” (Pharma Mar, S.A., priority 2001, dated 2011)
In brackets after ≈: the same amount, converted by molar mass.

Assays:
Type in all cases: cell-based
[1] = test system: A-549 (monolayer culture of a human lung carcinoma); assay: Cytotoxic activity screening, A-549 cells; settings: Homo sapiens, A549, 72 h, three days of incubation, Crystal Violet, approximate IC50
Method: (§1) Cell Cultures. Cells were maintained in logarithmic phase of growth in Eagle's Minimum Essential Medium, with Earle's Balanced Salts, with 2.0 mM L-glutamine, with non-essential amino acids, without sodium bicarbonate (EMEM/neaa); supplemented with 10% Fetal Calf Serum (FCS), 10^−2 M sodium bicarbonate and 0.1 g/l penicillin-G+streptomycin sulfate.
(§2) A separate set of cultures without drug was seeded as control growth to ensure that cells remained in exponential phase of growth. All determinations were carried out in duplicate. After three days of incubation at 37° C., 10% CO2 in a 98% humid atmosphere, the wells were stained with 0.1% Crystal Violet. An approximately IC50 was determined by comparing the growth in wells with drug to the growth in wells control.

[2] = test system: P-388 (suspension culture of a lymphoid neoplasm from DBA/2 mouse); assay: Cytotoxic activity screening, P-388 cells; settings: Mus musculus, P388, 72 h, three days of incubation, approximate IC50 vs control growth
Method: as §1
(§3) A simple screening procedure has been carried out to determine and compare the antitumour activity of these compounds, using an adapted form of the method described by Bergeron et al (1984). The tumour cell line employed have been P-388 (suspension culture of a lymphoid neoplasm from DBA/2 mouse), A-549 (monolayer culture of a human lung carcinoma), HT-29 (monolayer culture of a human colon carcinoma) and MEL-28 (monolayer culture of a human melanoma).
P-388 cell were seeded into 16 mm wells at 1×10^4 cells per well in 1 ml aliquots of MEM 5FCS containing the indicated concentration of drug. A separate set of cultures without drug was seeded as control growth to ensure that cells remained in exponential phase of growth. All determinations were carried out in duplicate.

[3] = test system: HT-29 (monolayer culture of a human colon carcinoma); assay: Cytotoxic activity screening, HT-29 cells; settings: Homo sapiens, HT-29, 72 h, three days of incubation, Crystal Violet, approximate IC50
Method: as §1, §2

DU-145 = assay: Cytotoxic activity screening, DU-145 cells; settings: Homo sapiens, DU-145, DU-145 cells
Method: [The source words this procedure for another cell line and reports this cell line under the same test.] as §1, §3
Examples of biological activities of the compounds described in the present application are in Table IV (IC50 (ng/mL)) on the following pages.

[4] = test system: MEL-28 (monolayer culture of a human melanoma); assay: Cytotoxic activity screening, MEL-28 cells; settings: Homo sapiens, SK-MEL-28, 72 h, three days of incubation, Crystal Violet, approximate IC50
Method: as §1, §3
as §2, with “A-549, HT-29 and MEL-28 were seeded into 16 mm wells at 2×10^4 cells per well in 1 ml aliquots of MEM 10FCS containing the indicated concentration of drug. A separate” for “A separate”

Row | Structure (SMILES) | IC50 [1] | IC50 [2] | IC50 [3] | IC50 (DU-145) | IC50 [4]
1 | COc1c(C)cc2c(c1O)[C@@H]1C3[C@@H]4SC[C@H](NC(=O)CCC(=O)O)C(=O)OC[C@@H](c5c6c(c(C)c(OC(C)=O)c54)OCO6)N3[C@@H](C#N)[C@H](C2)N1C (stereo partly shown) [Compound 3l] | 100 ng/mL (≈ 138 nM) | 100 ng/mL (≈ 138 nM) | 100 ng/mL (≈ 138 nM) | 100 ng/mL (≈ 138 nM) | 100 ng/mL (≈ 138 nM)
2 | COc1c(C)cc2c(c1O)[C@@H]1C3[C@@H]4SC[C@H](N(C)C)C(=O)OC[C@@H](c5c6c(c(C)c(OC(C)=O)c54)OCO6)N3[C@@H](C#N)[C@H](C2)N1C (stereo partly shown) [Compound 3m] | 10 ng/mL (≈ 15.4 nM) | 10 ng/mL (≈ 15.4 nM) | 10 ng/mL (≈ 15.4 nM) | 10 ng/mL (≈ 15.4 nM) | 10 ng/mL (≈ 15.4 nM)
3 | COc1c(C)cc2c(c1O)[C@@H]1C3[C@@H]4SCC(NCc5ccccc5)C(=O)OC[C@@H](c5c6c(c(C)c(OC(C)=O)c54)OCO6)N3[C@@H](C#N)[C@H](C2)N1C (stereo partly shown) [Compound 3n] | 0.5 ng/mL (≈ 0.701 nM) | 0.5 ng/mL (≈ 0.701 nM) | 0.5 ng/mL (≈ 0.701 nM) | 0.5 ng/mL (≈ 0.701 nM) | 0.5 ng/mL (≈ 0.701 nM)
4 | CCCN[C@H]1CS[C@@H]2c3c(OC(C)=O)c(C)c4c(c3[C@H](COC1=O)N1C2[C@H]2c3c(cc(C)c(OC)c3O)C[C@@H]([C@@H]1C#N)N2C)OCO4 (stereo partly shown) [Compound 3o] | 5 ng/mL (≈ 7.52 nM) | – | 5 ng/mL (≈ 7.52 nM) | – | –
5 | COc1c(C)cc2c(c1O)[C@@H]1C3[C@@H]4SC[C@H](NC(=O)C(N)C(C)C)C(=O)OC[C@@H](c5c6c(c(C)c(OC(C)=O)c54)OCO6)N3[C@@H](C#N)[C@H](C2)N1C (stereo partly shown) [Compound 3p] | 1 ng/mL (≈ 1.39 nM) | 1 ng/mL (≈ 1.39 nM) | 1 ng/mL (≈ 1.39 nM) | 1 ng/mL (≈ 1.39 nM) | 1 ng/mL (≈ 1.39 nM)
6 | COc1c(C)cc2c(c1O)[C@@H]1C3[C@@H]4SC[C@H](NC(=O)C(NC(C)=O)C(C)C)C(=O)OC[C@@H](c5c6c(c(C)c(OC(C)=O)c54)OCO6)N3[C@@H](C#N)[C@H](C2)N1C (stereo partly shown) [Compound 3q] | 1 ng/mL (≈ 1.31 nM) | 1 ng/mL (≈ 1.31 nM) | 1 ng/mL (≈ 1.31 nM) | 1 ng/mL (≈ 1.31 nM) | 1 ng/mL (≈ 1.31 nM)
7 | CCCN[C@H]1CS[C@@H]2c3c(OC(C)=O)c(C)c4c(c3[C@H](COC1=O)N1C2[C@H]2c3c(cc(C)c(OC)c3O)C[C@@H]([C@@H]1O)N2C)OCO4 (stereo partly shown) [Compound 4o] | 1 ng/mL (≈ 1.52 nM) | – | 1 ng/mL (≈ 1.52 nM) | – | –
8 | COc1c(C)cc2c(c1O)[C@@H]1C3[C@@H]4SC[C@@H](O)C(=O)OC[C@@H](c5c6c(c(C)c(OC(C)=O)c54)OCO6)N3[C@@H](C#N)[C@H](C2)N1C (stereo partly shown) [Compound 16*] | 10 ng/mL (≈ 16 nM) | – | 10 ng/mL (≈ 16 nM) | – | –
9 | COc1c(C)cc2c(c1O)[C@@H]1C3[C@@H]4SC[C@H](OS(C)(=O)=O)C(=O)OC[C@@H](c5c6c(c(C)c(OC(C)=O)c54)OCO6)N3[C@@H](C#N)[C@H](C2)N1C (stereo partly shown) [Compound 17ll] | 1 ng/mL (≈ 1.42 nM) | 1 ng/mL (≈ 1.42 nM) | 1 ng/mL (≈ 1.42 nM) | – | 1 ng/mL (≈ 1.42 nM)
10 | CCCCCCCCCCCCCCCC(=O)O[C@H]1CS[C@@H]2c3c(OC(C)=O)c(C)c4c(c3[C@H](COC1=O)N1C2[C@H]2c3c(cc(C)c(OC)c3O)C[C@@H]([C@@H]1O)N2C)OCO4 (stereo partly shown) [Compound 21f] | > 1000 ng/mL | – | > 1000 ng/mL | – | –
11 | CC(=O)Oc1c(C)c2c(c3c1[C@H]1SC[C@H](N)C(=O)OC[C@@H]3N3C1[C@H]1c4c(cc(C)c(O)c4O)C[C@@H]([C@@H]3C#N)N1C)OCO2 (stereo partly shown) [Compound 24] | 100 ng/mL (≈ 164 nM) | – | 100 ng/mL (≈ 164 nM) | – | –
12 | COc1c(C)cc2c(c1O)[C@@H]1C3[C@@H]4SC[C@@H](NC(C)=O)C(=O)OC[C@@H](c5c6c(c(C)c(O)c54)OCO6)N3[C@@H](C#N)[C@H](C2)N1C (stereo partly shown) [Compound 25] | 10 ng/mL (≈ 16.1 nM) | – | 10 ng/mL (≈ 16.1 nM) | – | –
13 | CC(=O)N[C@@H]1CS[C@@H]2c3c(OC(C)=O)c(C)c4c(c3[C@H](COC1=O)N1C2[C@H]2c3c(cc(C)c(O)c3O)C[C@@H]([C@@H]1C#N)N2C)OCO4 (stereo partly shown) [Compound 26] | 100 ng/mL (≈ 154 nM) | – | 100 ng/mL (≈ 154 nM) | – | –
